This note sets out measurements from US12161630B2, “Methods to control infection using new generation small molecule growth inhibitors” (priority 2017, dated 2024).

≈ marks a conversion by molar mass, not a printed value.

One experiment has as its system Salmonella Newport. The experiment in a line: MIC and MBC dose-response, serotype Newport. Format: cell-based, Salmonella enterica. Particulars: MIC identical to MBC. As for the experimental part: An overnight Salmonella suspension was normalized at 0.05 OD600 (approximately 3.5×10^7 CFU/ml) with an adjusted M9 minimal broth medium (12.7 mM Na2HPO4 7H2O; 22 mM KH2PO4; 18.7 mM NH4Cl; 2 mM MgSO4; 0.1 mM CaCl2; 0.4% glucose; 0.05% casamino acids). 100 μL of the suspension plus 2 μl of SMs (200 μM) were transferred into each well of a sterile, non-treated, flat bottom 96-well plate. Bacteria alone (negative control, NC), 2% DMSO plus bacteria (DMSO control), 20 μg/ml chloramphenicol or 50 μg/ml kanamycin plus bacteria (positive controls, PC), and M9 medium only were used as control. Plates were incubated in a Sunrise™ Tecan kinetic microplate reader for 12 hrs at 37° C. and the optical density (OD) was measure at 600 nm as described above. Percentage of inhibition=(OD600 SM−OD600 NC)/(OD600 NC)×100. […] Cultures from wells showing no turbidimetric increase were transferred onto a XLT4 agar plate. Plates were incubated at 37° C. for 36 hrs.
Screens were performed as described in the primary screen. The lowest SM concentration with a static effect was considered as the minimal inhibitory concentration (MIC) and the lowest SM concentration with a cidal effect was considered as the minimal bactericidal concentration (MBC).

The test system of another experiment is chicken cecal microbiota. Put plainly: Cecal microbiota 16S rRNA sequencing of SM-treated infected chickens. The format is in vivo, broiler chickens. As to conditions: compared to DMSO group (P<0.01). As for the experimental part:
DNA extraction and sequencing: Microbiota diversity and abundance were investigated using the second cecum directly stored in −80° C. Genomic DNA was extracted using the PureLink Microbiome DNA Purification Kit (Life Technologies, Invitrogen Corp.), combined with RNAse treatment (10 units/hour). About 0.15 g to 0.20 g of cecum content was processed according to manufacturer's instructions. After quality control with electrophoresis and nanodrop, extracted DNA samples were subjected for 16S rRNA V4-V5 variable region sequencing. As a first step of targeted sequencing, amplicon libraries were prepared by using Phusion® High-Fidelity PCR Kit (New England Biolabs Inc, Ipswich, MA) in a 96-well plate. 25 μL of PCR reactions were prepared using 5 μl (5×) of PCR buffer, 4 μl (5 ng/μl) of DNA sample, and 2.5 μl (2 μM) primer, 0.5 μl (10 mM) dNTPs, 0.2 μl of enzyme, and nuclease free water to final volume. The barcoded primers targeted the V4-V5 variable region. […] Sample concentrations were measured, and equal concentration of all samples were pooled into one flow cell and sequenced using Illumina MiSeq 300-base, paired-end kit at the Molecular and Cellular Imaging Center (Ohio Agricultural Research & Development Center, Wooster, OH).
Bioinformatics analyses: After sequencing, a quality control of the raw reads was performed using FastQC (Babraham Bioinformatics, Cambridge, USA). […] Details concerning the parameters used are described in mcbl.readthedocs.io/en/latest/mcbl-tutorials-AD-clean.html. […] Then samples were processed using Quantitative Insights Into Microbial Ecology (QIIME) software version 1.9 (16). Operational Taxonomy Units (OTUs) were determined by clustering reads against Greengenes 16S reference dataset (2013-08 release) at a 97% identity using open picking reference OTU (pick_open_reference_otus.py) method using default parameters, except setting minimum OTU size to 10. […]

A further experiment concerns M. gallisepticum. The experiment in a line: Activity on avian pathogens at 200 μM, M. gallisepticum. Format: cell-based, Mycoplasma gallisepticum. As for the experimental part:
FIGS. 1(A-E). Selection of potent Salmonella growth inhibitors. FIG. 1A: High-throughput screening of 4182 SMs against S. typhimurium WT at 200 μM. Negative value: growth inhibition; Positive value: growth stimulation compared to S. typhimurium growth not treated. The black line represents growth inhibition caused by 2% DMSO. FIG. 1B: Activity of 19 S. typhimurium growth inhibitors against additional Salmonella serotypes. Light grey cells: total growth inhibition; dark grey cells: bacterial growth observed; black cells: not determined. FIG. 1C: Dose-response assays of the selected 19 SMs against S. typhimurium WT. […] The black line represents a cut off of nine serotypes killed per SM. FIG. 1E: Activity spectra of the selected four SMs at 200 μM each on several avian-pathogens (Campylobacter jejuni, Escherichia coli APEC, and Mycoplasma gallisepticum) and beneficial gut bacteria (remaining species). E. coli APEC refers to Avian Pathogenic E. coli and includes E. coli O1, O2, O8, O15, O18, O35, O78, O109, and O115. Light grey cells: cidal effect; dark grey cells: bacterial growth observed. Left side: phylogenetic tree based on NCBI taxonomic ID built with PhyloT software.
The selected four SMs were tested on twelve beneficial-commensal gut bacteria at 200 μM (FIG. 1E). […] These four SMs were also growth inhibitors of other avian pathogens at 200 μM (unpublished data, FIG. 1E). […] The antimicrobial activity seemed not to be influenced by the taxonomic classification, however the SM5 bacterial target may be less present in prokaryotes than the drug target of the other three SMs.

As to `CC1CCC(C(C)C)C(OC(=O)Cn2c[n+](CC(=O)OC3CC(C)CCC3C(C)C)c3ccccc32)C1.[Cl-]` (stereo not shown) [SM1, 1,3-bis{2-[(2-isopropyl-5-methylcyclohexyl)oxy]-2-oxoethyl}-1H-3,1-benzimidazol-3-ium chloride], the “MIC/MBC” value against Salmonella Newport came to 100 µM. Besides, the “abundance of Salmonella OTUs in ceca” value in the experiment with chicken cecal microbiota was “reduction”.

With `CCCCCCCCCCCCCCCC[n+]1ccn(CC#N)c1.[Cl-]` [SM3, 1-(cyanomethyl)-3-hexadecyl-1H-imidazol-3-ium chloride], the “MIC/MBC” value in the experiment with Salmonella Newport worked out at 50 µM. Also, the “effect against M. gallisepticum” value in the experiment with M. gallisepticum was “killed”.

For `CCCCCCCCCCCCCCCCn1c[n+](C)c2ccccc21.[Br-]` [SM4, 1-hexadecyl-3-methyl-1H-3,1-benzimidazol-3-ium bromide], the “MIC/MBC” value against Salmonella Newport was found to be 25 µM. Further, the “effect against M. gallisepticum” value in the experiment with M. gallisepticum is reported as “killed”. The “abundance of Salmonella OTUs in ceca” value in the experiment with chicken cecal microbiota is given as “reduced abundance”.

As for `CCOc1cc(/C=N/N=C(N)N)ccc1OCc1ccc(Cl)cc1` [SM5, N″-{4-[(4-chlorobenzyl)oxy]-3-ethoxybenzylidene}carbonohydrazonic diamide], the “MIC/MBC” value against Salmonella Newport was determined as 50 µM (≈ 17.3 µg/mL). Besides, in the experiment with M. gallisepticum, the “effect against M. gallisepticum” value is recorded as “killed”. In addition, in the experiment with chicken cecal microbiota, the “abundance of Salmonella OTUs in ceca” value is given as “reduced abundance”.
